According to patent US6495576B2, “Aminal diones as potassium channel openers” (Abbott Laboratories, priority 2001, dated 2002):
Where two headings read alike, the source gives them in different places. Each block holds one compound with its values, some of them ahead of it.

Test system: Landrace pig bladder strips
Assay: Functional potassium channel opening activity in isolated, field-stimulated bladder strips
Conditions: for Index: ED50 for P1075 divided by ED50 for test agonist in a given tissue, averaged; for EC50: amount causing 50% of the agent's maximal response, field stimulation 0.05 Hz, 0.5 ms, 20 volts, read-out: ED50 (the source's name); for Efficacy (%P1075) / Emax: maximal efficacy on stimulated twitch, relative to P1075
Experimental: Compound were evaluated for functional potassium channel opening activity using tissue strips obtained from Landrace pig bladders.
Landrace pig bladders were obtained from female Landrace pigs of 9-30 kg. Landrace pig were euthanized with an intraperitoneal injection of pentobarbital solution, Somlethal ®, J. A. Webster Inc. Sterling Mass. The entire bladder was removed and immediately placed into Krebs Ringer bicarbonate solution (composition, mM: NaCl, 120; NaHCO3, 20; dextrose, 11; KCl, 4.7; CaCl2, 2.5; MgSO4, 1.5; KH2PO4, 1.2; K2EDTA, 0.01, equilibrated with 5% CO2/95% O2 pH 7.4 at 37° C.). Propranolol (0.004 mM) was included in all of the assays to block β-adrenoceptors. The trigonal and dome portions were discarded. Strips 3-5 mm wide and 20 mm long were prepared from the remaining tissue cut in a circular fashion. The mucosal layer was removed. One end was fixed to a stationary glass rod and the other to a Grass FT03 transducer at a basal preload of 1.0 gram. Two parallel platinum electrodes were included in the stationary glass rod to provide field stimulation of 0.05 Hz, 0.5 milli-seconds at 20 volts. This low frequency stimulation produced a stable twitch response of 100-500 centigrams. Tissues were allowed to equilibrate for at least 60 minutes and primed with 80 mM KCl. A control concentration response curve (cumulative) was generated for each tissue using the potassium channel opener P1075 as the control agonist. […] After a 60 minute rinsing period, a concentration response curve (cumulative) was generated for the test agonist in the same fashion as that used for control agonist P1075. The maximal efficacy of each compound (expressed as % relative to P1075) is reported. The amount of agent necessary to cause 50% of the agent's maximal response (ED50) was calculated using “ALLFIT” (DeLean et al., Am. J. Physiol., 235, E97 (1980)), hereby incorporated by reference. Agonist potencies were also expressed as an index relative to P1075. The index was calculated by dividing the ED50 for P1075 by the ED50 for the test agonist in a given tissue. Each tissue was used for only one test agonist, and the indices obtained from each tissue were averaged to provide an average index of potency.

EC50: 470 nM
SMILES: Cc1cccc(C(=O)NC(Nc2c(Nc3cccnc3Cl)c(=O)c2=O)C(C)(C)Cc2ccccc2)c1 (stereo not drawn) [Example 61, N-[1-({2[(2-Chloropyiridin-3-yl)amino]-3,4-dioxo-1-cyclobuten-1-yl}amino)-2,2-dimethyl-3-phenylpropyl]-3-methylbenzamide]
Index: 0.50
Efficacy (%P1075): 64 %P1075

EC50: 1900 nM
SMILES: CC(C)(C)C(NC(=O)CCc1ccccc1)Nc1c(Nc2cccnc2Cl)c(=O)c1=O (stereo not drawn) [Example 87, N-[1-({2-[(2-chloropyridin-3-yl)amino]-3,4-dioxo-1-cyclobuten-1-yl}amino)-2,2-dimethylpropy1]-3-phenylpropanamide]
Index: 0.039
Efficacy (%P1075): 96 %P1075

EC50 (Sus scrofa): 4600 nM
SMILES: CC(C)(C)C(NC(=O)c1cc(Cl)cc(Cl)c1)Nc1c(Nc2cccnc2Cl)c(=O)c1=O (stereo not drawn) [Example 79, 3,5-Dichloro-N-[1-({2-[(2-chloropyridin-3-yl)amino]-3,4-dioxocyclobut-1-en-1-yl}amino)-2,2-dimethylpropyl]benzamide]
Index: 0.024
Emax (Sus scrofa): 60%

EC50 (Sus scrofa): 2500 nM
SMILES: CC(C)(C)C(NC(=O)c1cccc(Br)c1)Nc1c(Nc2cccnc2Cl)c(=O)c1=O (stereo not drawn) [Example 67, 3-Bromo-N-[1-({2-[(2-chloropyridin-3-yl)amino]-3,4-dioxo-1-cyclobuten-1-yl}amino)-2,2-dimethylpropyl]benzamide]
Index: 0.029
Emax (Sus scrofa): 72%

EC50 (Sus scrofa): 1400 nM
SMILES: CC(Cl)(Cl)C(NC(=O)c1cc(F)cc(F)c1)Nc1c(Nc2cccnc2)c(=O)c1=O (stereo not drawn) [Example 51, N-(2,2-Dichloro-1-{[3,4dioxo-2-(3-pyridinylamino)-1-cyclobuten-1-yl]amino}propyl)-3,5-difluorobenzamide]
Index: 0.080
Emax (Sus scrofa): 96%

EC50: 1200 nM
SMILES: CC(C)(C)C(NC(=O)c1cc(F)cc(F)c1)Nc1c(Nc2cccnc2)c(=O)c1=O (single isomer, unassigned; (+)) [Example 49, (+)N-(1-{[3.4-Dioxo-2-(3-pyridinylamino)-1-cyclobuten-1-yl]amino}-2,2-dimethylpropyl)-3,5-difluorobenzamide]
Index: 0.071
Efficacy (%P1075): 100 %P1075

EC50: 840 nM
SMILES: CC(C)(C)C(NC(=O)c1cccc(F)c1)Nc1c(Nc2cccnc2Cl)c(=O)c1=O (stereo not drawn) [Example 78]
Index: 0.18
Efficacy (%P1075): 98 %P1075

EC50: 6800 nM
SMILES: CC(C)(C)C(NC(=O)c1cc(F)cc(F)c1)Nc1c(Nc2cccnc2)c(=O)c1=O (single isomer, unassigned; (-)) [Example 50, (−)N-(1-{[3,4-Dioxo-2-(3-pyridinylamino)-1-cyclobuten-1-yl]amino}-2,2-dimethylpropyl)-3,5-difluorobenzamide]
Index: 0.14
Emax (Sus scrofa): 79%

EC50 (Sus scrofa): 2300 nM
SMILES: CC(C)(Cc1ccccc1)C(NC(=O)c1cc(F)cc(F)c1)Nc1c(Nc2cccnc2)c(=O)c1=O (stereo not drawn) [Example 55, N-(1-{[3,4-Dioxo-2-(3-pyridinylamino)-1-cyclobuten-1-yl]amino}-2,2-dimethyl-3-phenylpropyl)-3,5-difluorobenzamide]
Index: 0.053
Emax (Sus scrofa): 75%

EC50 (Sus scrofa): 4200 nM
SMILES: CC(C)(C)CC(NC(=O)c1cccc(Cl)c1)Nc1c(Nc2cccnc2)c(=O)c1=O (stereo not drawn) [Example 64, 3-Chloro-N-(1-{[3,4-dioxo-2-(3 pyridinylamino)-1-cyclobuten-1-yl]amino}-3,3-dimethylbutyl)benzamide]
Index: 0.025
Emax (Sus scrofa): 76%

EC50 (Sus scrofa): 4200 nM
SMILES: CC(C)(C)C(NC(=O)c1cccc(Br)c1)Nc1c(Nc2cccnc2)c(=O)c1=O (stereo not drawn) [Example 66, 3-Bromo-N-(1-{[3,4-dioxo-2-(3-pyridinylamino)-1-cyclobuten-1-yl]amino}-2,2-dimethylpropyl)benzamide]
Index: 0.040
Emax (Sus scrofa): 74%

EC50: 640 nM
SMILES: CC(C)(Cc1ccccc1)C(NC(=O)c1ccccc1)Nc1c(Nc2cccnc2)c(=O)c1=O (stereo not drawn) [Example 86]
Index: 0.24
Efficacy (%P1075): 85 %P1075

Further lines, the compound ahead of its results:

SMILES: CC(C)(C)C(NC(=O)c1cccc(I)c1)Nc1c(Nc2cccnc2)c(=O)c1=O (stereo not drawn) [Example 8, N-(1-{[3,4-Dioxo-2-(3-pyridinylamino)-1-cyclobuten-1-yl]amino}-2,2-dimethylpropyl)-3-iodobenzamide]
Index: 0.047

SMILES: CCC(C)(C)N=C(NC#N)Nc1cccnc1 [Example P1075, reference compound]
effect on stimulated twitch (control agonist, dose dependent, 10^−9 to 10^−5 M): completely eliminated the stimulated twitch

SMILES: CCC(CC)C(NC(=O)c1ccc(Cl)cc1)Nc1c(Nc2cccnc2)c(=O)c1=O (stereo not drawn) [Example 21, 4-Chloro-N-(1-{[3,4-dioxo-2-(3-pyridinylamino)-1-cyclobuten-1-yl]amino}-2-ethylbutyl)benzamide]
Index: 0.092

SMILES: CC(C)(C)C(NC(=O)c1cccc(Cl)c1)Nc1c(Nc2cccnc2)c(=O)c1=O (stereo not drawn) [Example 5, 3-chloro-N-(1-{[3,4-Dioxo-2-(3-pyridinylamino)-1-cyclobuten-1-yl]amino}-2,2-dimethylpropyl)benzamide]
Index: 0.059

SMILES: CC(C)(C)C(NC(=O)CCc1ccccc1)Nc1c(Nc2cccnc2)c(=O)c1=O (stereo not drawn) [Example 36, N-(1-{[3,4-Dioxo-2-(3-pyridinylamino)-1-cyclobuten-1-yl]amino}-2,2-dimethylpropyl)-3-phenylpropionamide]
Index: 0.063

SMILES: CC(C)(C)C(NC(=O)c1cccc(F)c1)Nc1c(Nc2cccnc2)c(=O)c1=O (stereo not drawn) [Example 7, N-(1-{[3,4-Dioxo-2-(3-pyridinylamino)-1-cyclobuten-1-yl]amino}-2,2-dimethylpropyl)-3-fluorobenzamide]
Index: 0.025

SMILES: COc1cc(OC)cc(C(=O)NC(Nc2c(Nc3cccnc3)c(=O)c2=O)C(C)(C)C)c1 (stereo not drawn) [Example 13, N-(1-{[3,4-dioxo-2-(3-pyridinylamino)-1-cyclobuten-1-yl]amino}-2,2-dimethylpropyl)-3,5-dimethoxybenzamide]
Index: 0.57

SMILES: Cc1cccc(C(=O)NC(Nc2c(Nc3cccnc3Cl)c(=O)c2=O)C(C)(C)C)c1 (stereo not drawn) [Example 32, N-[1-({2-[(2-Chloro-3-pyridinyl)amino]-3,4-dioxo-1-cyclobuten-1-yl}amino)-2,2-dimethylpropyl]-3-methylbenzamide]
Index: 0.076

SMILES: CC(C)(C)C(NC(=O)c1ccc(Cl)cc1)Nc1c(Nc2cccnc2Cl)c(=O)c1=O (stereo not drawn) [Example 29, 4-Chloro-N-[1-({2-[(2-chloro-3-pyridinyl)amino]-3,4-dioxo-1-cyclobuten-1-yl}amino)-2,2-dimethylpropyl]benzamide]
Index: 0.028

SMILES: Cc1cccc(C(=O)NC(Nc2c(Nc3cccnc3)c(=O)c2=O)C(C)(C)C)c1 (stereo not drawn) [Example 6, N-(1-{[3,4-Dioxo-2-(3-pyridinylamino)-1-cyclobuten-1-yl]amino}-2,2-dimethylpropyl)-3-methylbenzamide]
Index: 0.067

SMILES: O=C(NC(Nc1c(Nc2cccnc2)c(=O)c1=O)C(F)(F)C(F)(F)F)c1cccc(Cl)c1 (stereo not drawn) [Example 26, 3-Chloro-N-(1-{[3,4-dioxo-2-(3-pyridinylamino)-1-cyclobuten-1-yl]amino}−2,2,3,3,3-pentafluoropropyl)benzamide]
Index: 0.64

SMILES: CC(C)(C)C(NC(=O)c1cc(Cl)cc(Cl)c1)Nc1c(Nc2cccnc2)c(=O)c1=O (stereo not drawn) [Example 12, 3,5-Dichloro-N-(1-{[3,4-dioxo-2-(3-pyridinylamino)-1-cyclobuten-1-yl]amino}-2,2-dimethylpropyl)benzamide]
Index: 0.12
